Measurements taken from US11000033B2, “Ketone or oxime compound, and herbicide” (NISSAN CHEMICAL CORPORATION, priority 2014, dated 2021).

Columns and labels:
Assay type in all cases: in vivo
Setaria viridis [1] = test: Test Example 4: herbicidal effect by soil treatment (symbol G); conditions: application herbicide amount 320 g/ha
Summary of the method: (§1)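 Seeds were sown in sterilized diluvial soil, covered with about 1.5 cm of soil, and the soil surface was sprayed with a water-diluted emulsion of the compound at a predetermined rate. Plants grew in a greenhouse at 25° C. to 30° C.; effects were scored visually 3 weeks after application.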

rapeseed = test: Test Example 5: effect on crop by foliage application, plastic box (symbol g); conditions: 320 g/ha, 3 weeks after application
Summary of the method: (§2)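 Crop seed is sown alongside grass and broadleaf weed species in spots in sterilized diluvial soil, then covered to a depth of about 1.5 cm. Plants grow in a greenhouse kept at 25° C. to 30° C.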

beet = test: Test Example 5: effect on crop by foliage application, plastic box (symbol f); conditions: 320 g/ha, 3 weeks after application
Summary of the method: as §2

[2] = system: Echinochloa crus-galli var. crus-galli; test: Test Example 5: herbicidal effect by foliage application, plastic box (symbol H); conditions: 320 g/ha, 3 weeks after application
Summary of the method: (§3)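 Post-emergence spray; diluvial soil (sterilized), ~1.5 cm seed cover; greenhouse 25–30° C; 14-day-old plants; water-diluted emulsion at predetermined dose; visual score at 3 wk post-treatment.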

Stellaria media [3] = test: Test Example 4: herbicidal effect by soil treatment (symbol P); conditions: application herbicide amount 320 g/ha
Summary of the method: as §1

Avena fatua = test: Test Example 5: herbicidal effect by foliage application, plastic box (symbol I); conditions: 320 g/ha, 3 weeks after application
Summary of the method: as §3

Setaria viridis [4] = test: Test Example 5: herbicidal effect by foliage application, plastic box (symbol G); conditions: 320 g/ha, 3 weeks after application
Summary of the method: as §3

Abutilon theophrasti [5] = test: Test Example 4: herbicidal effect by soil treatment (symbol M); conditions: application herbicide amount 320 g/ha
Summary of the method: as §1

Abutilon theophrasti [6] = test: Test Example 5: herbicidal effect by foliage application, plastic box (symbol M); conditions: 320 g/ha, 3 weeks after application
Summary of the method: as §3

Apera spica-venti [7] = test: Test Example 4: herbicidal effect by soil treatment (symbol L); conditions: application herbicide amount 320 g/ha
Summary of the method: as §1

Veronica persica = test: Test Example 4: herbicidal effect by soil treatment (symbol R); conditions: application herbicide amount 320 g/ha
Summary of the method: as §1

Leptochloa chinensis = test: Test Example 3: herbicidal effect by foliage application, Wagner pot (symbol D); conditions: application herbicide amount 320 g/ha
Summary of the method: (§4)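 Alluvial soil was flooded to a depth of 0.1–0.5 cm, seeded with the weeds and rice, and kept in a greenhouse at 25–30 °C. After 14 days of growth, the foliage received a small-sprayer application of emulsion diluted to the intended rate; injury was rated at 3 weeks.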

Digitaria ciliaris = test: Test Example 4: herbicidal effect by soil treatment (symbol F); conditions: application herbicide amount 320 g/ha
Summary of the method: as §1

Chenopodium album = test: Test Example 4: herbicidal effect by soil treatment (symbol O); conditions: application herbicide amount 320 g/ha
Summary of the method: as §1

[8] = system: Echinochloa crus-galli var. crus-galli; test: Test Example 3: herbicidal effect by foliage application, Wagner pot (symbol H); conditions: application herbicide amount 320 g/ha
Summary of the method: as §4

[9] = system: directly sowed rice plant; test: Test Example 3: effect on crop by foliage application, Wagner pot (symbol b); conditions: application herbicide amount 320 g/ha
Summary of the method: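 Wagner pot (1/10000 are), alluvial soil, submerged 0.1–0.5 cm; sown E. crus-galli var. crus-galli, L. chinensis, C. difformis, rice; greenhouse 25–30 °C.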

transplanted rice plant = test: Test Example 1: effect on crop, application before weed generation in submerged conditions (symbol a); conditions: application herbicide amount 320 g/ha
Summary of the method: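 Rice at 2.5 leaf stage transplanted into submerged soil (4 cm depth) sown with three weed species; herbicide applied before weed emergence.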

Galium spurium = test: Test Example 4: herbicidal effect by soil treatment (symbol Q); conditions: application herbicide amount 320 g/ha
Summary of the method: as §1

rice plant = test: Test Example 5: effect on crop by foliage application, plastic box (symbol b); conditions: 320 g/ha, 3 weeks after application
Summary of the method: as §2

Amaranthus retroflexus = test: Test Example 4: herbicidal effect by soil treatment (symbol N); conditions: application herbicide amount 320 g/ha
Summary of the method: as §1

Stellaria media [10] = test: Test Example 5: herbicidal effect by foliage application, plastic box (symbol P); conditions: 320 g/ha, 3 weeks after application
Summary of the method: as §3

Lolium multiflorum Lam. = test: Test Example 4: herbicidal effect by soil treatment (symbol K); conditions: application herbicide amount 320 g/ha
Summary of the method: as §1

Apera spica-venti [11] = test: Test Example 5: herbicidal effect by foliage application, plastic box (symbol L); conditions: 320 g/ha, 3 weeks after application
Summary of the method: as §3

SMILES: CON=C(C)CC1CC(O)=C(c2c(C)cc(C)cc2SC)C1=O (centres unmarked) [6-075]
- G: Setaria viridis, herbicidal effect grade (Setaria viridis [1]): 0 (Herbicidal ratio of 5% or lower (almost no effect))
- g: rapeseed, effect on crop (criteria of Test Example 1) (rapeseed): 3 (Herbicidal ratio of 40% or higher and lower than 70%)
- f: beet, effect on crop (criteria of Test Example 1) (beet): 0 (Herbicidal ratio of 5% or lower (almost no effect))
- H: Echinochloa crus-galli var. crus-galli, herbicidal effect (criteria of Test Example 1) [2]: 2 (Herbicidal ratio of 20% or higher and lower than 40%)
- P: Stellaria media, herbicidal effect grade (Stellaria media [3]): 0 (Herbicidal ratio of 5% or lower (almost no effect))
- I: Avena fatua, herbicidal effect (criteria of Test Example 1) (Avena fatua): 5 (Herbicidal ratio of 90% or more (almost completely withered))
- G: Setaria viridis, herbicidal effect (criteria of Test Example 1) (Setaria viridis [4]): 0 (Herbicidal ratio of 5% or lower (almost no effect))
- M: Abutilon theophrasti, herbicidal effect grade (Abutilon theophrasti [5]): 0 (Herbicidal ratio of 5% or lower (almost no effect))
- M: Abutilon theophrasti, herbicidal effect (criteria of Test Example 1) (Abutilon theophrasti [6]): 0 (Herbicidal ratio of 5% or lower (almost no effect))
- L: Apera spica-venti, herbicidal effect grade (Apera spica-venti [7]): 3 (Herbicidal ratio of 40% or higher and lower than 70%)
- R: Veronica persica, herbicidal effect grade (Veronica persica): 0 (Herbicidal ratio of 5% or lower (almost no effect))
- herbicidal effect on D (Leptochloa chinensis), grade 0-5 (Leptochloa chinensis): 3 (Herbicidal ratio of 40% or higher and lower than 70%)
- F: Digitaria ciliaris, herbicidal effect grade (Digitaria ciliaris): 0 (Herbicidal ratio of 5% or lower (almost no effect))
- O: Chenopodium album, herbicidal effect grade (Chenopodium album): 0 (Herbicidal ratio of 5% or lower (almost no effect))
- herbicidal effect on H (Echinochloa crus-galli var. crus-galli), grade 0-5 [8]: 3 (Herbicidal ratio of 40% or higher and lower than 70%)
- effect on crop b (directly sowed rice plant), grade 0-5 [9]: 4 (Herbicidal ratio of 70% or higher and lower than 90%)
- Effect grade on crop, a: transplanted rice plant (transplanted rice plant): 3 (Herbicidal ratio of 40% or higher and lower than 70%)
- Q: Galium spurium, herbicidal effect grade (Galium spurium): 0 (Herbicidal ratio of 5% or lower (almost no effect))
- b: directly sowed rice plant, effect on crop (criteria of Test Example 1) (rice plant): 4 (Herbicidal ratio of 70% or higher and lower than 90%)
- N: Amaranthus retroflexus, herbicidal effect grade (Amaranthus retroflexus): 0 (Herbicidal ratio of 5% or lower (almost no effect))
- P: Stellaria media, herbicidal effect (criteria of Test Example 1) (Stellaria media [10]): 0 (Herbicidal ratio of 5% or lower (almost no effect))
- K: Lolium multiflorum Lam., herbicidal effect grade (Lolium multiflorum Lam.): 4 (Herbicidal ratio of 70% or higher and lower than 90%)
- L: Apera spica-venti, herbicidal effect (criteria of Test Example 1) (Apera spica-venti [11]): 5 (Herbicidal ratio of 90% or more (almost completely withered))
